Source: publication PMC3979932 (Xenobiotica; the fate of foreign compounds in biological …, 2013)
Read-outs that look alike come from different tables or passages of the source.

Assays:
[1] = target: T1, CYP2E1 (Homo sapiens, UniProt P05181); experiment: in vitro; details: microsomes, pH 7.4
[2] = target: T1, CYP2E1
[3] = target: T1, CYP2E1; experiment: in vitro; details: recombinant enzyme, pH 7.4
[4] = target: T2, CYP2E1 activity with HLM150 (Homo sapiens, UniProt P05181); experiment: Steady-state inhibition kinetics of 4-nitrophenol oxidation, HLM150
T2 sequence (P05181 whole entry): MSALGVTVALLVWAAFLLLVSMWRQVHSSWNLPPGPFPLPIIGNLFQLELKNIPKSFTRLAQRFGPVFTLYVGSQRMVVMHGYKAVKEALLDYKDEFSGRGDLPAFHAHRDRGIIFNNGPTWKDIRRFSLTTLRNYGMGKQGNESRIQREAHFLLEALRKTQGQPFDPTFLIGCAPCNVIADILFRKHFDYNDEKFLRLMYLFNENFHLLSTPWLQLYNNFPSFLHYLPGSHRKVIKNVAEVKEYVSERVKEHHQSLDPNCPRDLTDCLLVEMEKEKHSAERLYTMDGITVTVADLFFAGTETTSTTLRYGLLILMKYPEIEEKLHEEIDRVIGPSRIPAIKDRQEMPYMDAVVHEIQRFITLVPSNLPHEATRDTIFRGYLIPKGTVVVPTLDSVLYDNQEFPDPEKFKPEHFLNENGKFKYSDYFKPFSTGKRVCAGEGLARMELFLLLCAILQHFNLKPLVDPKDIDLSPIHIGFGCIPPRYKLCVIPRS

[5] = target: T3, CYP2E1 in human liver microsomes (HLM150) (Homo sapiens, UniProt P05181)
T3 sequence (P05181 whole entry): as above

[6] = target: T1, CYP2E1; experiment: Steady-state inhibition kinetics of 4-nitrophenol oxidation, CYP2E1 Supersomes; details: for Ki: Ki,ap, apparent, catalytic site, 95% CI in parentheses; for Mechanism: most probable inhibition mechanism among 10 models
[7] = target: T1, CYP2E1; details: human, microsomes, pH 7.4
[8] = target: T4, human CYP2E1 (Supersomes) (Homo sapiens, UniProt P05181)
T4 sequence (P05181 whole entry): as above

[9] = target: T1, CYP2E1; details: human, recombinant enzyme, pH 7.4
[10] = system: CYP2E1; details: CYP2E1 Supersomes; ref Hartman et al., 2012; cited from earlier work
[11] = target: T3, CYP2E1 in human liver microsomes (HLM150); details: pH 7.4
[12] = target: T4, human CYP2E1 (Supersomes); details: recombinant enzyme, pH 7.4
[13] = target: T2, CYP2E1 activity with HLM150

T1 sequence (P05181 whole entry): as above

| activity at 30 min [1] [%] | Mechanism [2] | IC50 at 30 min [3] [µM] | activity at 30 min [3] [%] | Ki,ap ([2]; recombinant enzyme) | IC50 [11] | IC50 [12] | Ki,ap [13] | Mechanism [13] | SMILES | Ki [4] [µM] | IC50 [5] [µM] | Ki [6] [µM] | Ki ([4]; Ki,ap, HLM150, apparent, catalytic site, 95% CI in parentheses) [µM] | Ki ([4]; Ksi,ap, HLM150, apparent, cooperative site, 95% CI in parentheses) [µM] | activity at 30 min [7] [%] | IC50 [8] [µM] | activity at 30 min [9] [%] | Ks (high affinity apparent binding constant during styrene metabolism) [10] [µM] | Mechanism [6] |
| --- | --- | --- | --- | --- | --- | --- | --- | --- | --- | --- | --- | --- | --- | --- | --- | --- | --- | --- | --- |
| 19 | Mixed cooperative substrate | 24 | 16 | – | – | – | – | – | C=Cc1ccc(O)cc1 [4-Vinylphenol, 4-vinylphenol] | 61 | 38 | 47 | – | – | – | – | – | – | – |
| – | – | – | – | – | – | – | – | – | C=Cc1ccccc1 [Styrene, styrene] | – | 45 | 67 | 18 | 58 | 20 | 75 | 11 | 110 | Mixed cooperative substrate |
| 18 | Competitive | – | 9.2 | 29 000 (19 000–52 000) μM | 14 000 (6600–21 000) μM | 13 000 (2800–23 000) μM | 17 000 (15 000–19 000) μM | Competitive | OCC(O)c1ccccc1 (racemic) [R/S-Styrene glycol, (R/S)-1,2-phenylethanediol] | – | – | – | – | – | – | – | – | – | – |
| – | – | – | – | – | – | – | – | – | c1ccc(C2CO2)cc1 (stereo not shown) [Styrene oxide, 8,9-styrene oxide] | 160 | 150 | 110 | – | – | 28 | 55 | 13 | – | Mixed cooperative substrate |
